# Assays:
# [1] = molecular target: human ERG potassium channel (hERG) (Homo sapiens (Human), UniProt Q12809); assay: hERG channel tail current recording using Rapid ICE automated patch-clamp; type: cell-based; conditions: HEK293 cells stably transfected with hERG
# Procedure: The potency of the compounds of the invention in inhibiting human ERG potassium channel (hERG) tail current is assessed in a recombinant HEK293 cell line stably transfected with hERG cDNA using Rapid ICE™ (Rapid Ion Channel Electrophysiology) assay. Rapid ICE™ is an automated patch-clamp assay utilizing the PatchXpress 7000A system (Molecular Devices Corporation) or the QPatch HTX system (Sophion Bioscience A/S).
# Briefly cells are cultivated for 24 to 72 hours before recordings in minimum essential medium supplemented with 10% FBS, 1% non-essential amino acids, 1% sodium pyruvate, 2 mM L-glutamine. The day of the experiment cells are detached with TrypLE and prepared to be loaded on the instrument. For PatchXpress cells are finally resuspended in 150 μl of Extracellular Buffer whereas for QPatch cells are resuspended in 7 ml Serum-Free Media containing 25 mM Hepes and Soybean trypsin inhibitor and immediately placed in the cell storage tank of the machine. The composition of the Extracellular Buffer is (mM): NaCl 137; KCl 4; CaCl2 1.8; MgCl2 1.0; D-glucose 10; N 2 hydroxyethylpiperazine-N′-2-ethanesulfonic acid (HEPES) 10; pH 7.4 with 1 M NaOH. The composition of the pipette solution is (mM): KCl 130; MgCl2 1.0; Ethylene glycol-bis(β-aminoethyl ether)-N,N,N′,N′-tetraacetic acid (EGTA) 5; MgATP 5; HEPES 10; pH 7.2 with 1 M KOH. The voltage protocol includes the following steps: step from −80 mV to −50 mV for 200 ms, +20 mV for 4.8 s, step to −50 mV for 5 s then step to the holding potential of −80 mV. Compounds of the invention are dissolved in DMSO and diluted in Extracellular Buffer to achieve final test concentrations (0.1, 1 and 10 μM) in 0.1% DMSO. The voltage protocol is run and recorded continuously during the experiment. The vehicle, corresponding to 0.1% DMSO in Extracellular Buffer, is then applied for 3 min followed by the test substance in triplicate. The standard combined exposure time is 5 min. The average of tail current amplitude values recorded from 4 sequential voltage pulses is used to calculate for each cell the effect of the test substance by calculating the residual current (% control) compared with vehicle pre-treatment. Data are reported as % inhibition for each concentration tested and IC50 values are estimated using DataXpress or QPatch software. At least two cells are tested, more if results diverge.
# [2] = molecular target: human norepinephrine transporter (NET) (Homo sapiens (Human), UniProt P23975); assay: Scintillation Proximity Assay (SPA) for human NET binding ([3H]nisoxetine); conditions: recombinant human NET, CHO membranes
# Chain of human norepinephrine transporter (NET) (P23975 whole entry): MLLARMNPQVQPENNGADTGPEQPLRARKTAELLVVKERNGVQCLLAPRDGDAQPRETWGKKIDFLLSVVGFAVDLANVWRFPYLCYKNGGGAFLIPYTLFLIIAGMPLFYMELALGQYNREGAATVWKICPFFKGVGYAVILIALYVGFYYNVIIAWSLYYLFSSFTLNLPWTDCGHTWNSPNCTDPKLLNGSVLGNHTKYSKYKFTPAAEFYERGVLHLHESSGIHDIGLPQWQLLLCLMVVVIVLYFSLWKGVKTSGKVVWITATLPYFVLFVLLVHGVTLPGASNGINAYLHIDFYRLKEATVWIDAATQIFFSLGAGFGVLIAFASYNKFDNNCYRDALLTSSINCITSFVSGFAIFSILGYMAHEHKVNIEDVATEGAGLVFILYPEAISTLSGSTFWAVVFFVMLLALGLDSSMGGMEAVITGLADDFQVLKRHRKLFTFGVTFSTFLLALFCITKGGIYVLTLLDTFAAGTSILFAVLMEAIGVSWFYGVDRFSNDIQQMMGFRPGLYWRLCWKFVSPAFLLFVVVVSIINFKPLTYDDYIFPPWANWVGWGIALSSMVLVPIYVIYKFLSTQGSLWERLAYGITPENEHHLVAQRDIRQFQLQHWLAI
# From the text: (§1) Affinity is expressed in terms of inhibition constant (Ki) of the compounds of the invention for DAT, NET and SERT, and it is typically calculated from the IC50 values obtained in competition experiments using Cheng and Prusoff equation (Cheng and Prusoff, Biochem. Pharmacol. 22:3099, 1973). In the context of the present invention pKi values (corresponding to the antilogarithm of Ki) are used instead of Ki; pKi are only estimated to be accurate to about 0.3 log unit.
# (§2) Chinese Hamster Ovary (CHO) cells stably expressing either human DAT (hDAT-CHO) or human NET (hNET-CHO) or human SERT (hSERT-CHO) are used for the membrane preparations for radioligand binding assays using Scintillation proximity Assay (SPA) technique. Each cell line is cultured independently in F-12K Nutrient Mixture containing 10% of Fetal Bovine Serum (FBS) supplemented with 450 μg/ml G-418. When cells are at 70-80% of confluence 3 mM Na Butyrate was added to the cell culture medium. After 24 h of incubation, the culture medium was removed and the cells detached with Versene (DAT) or by scraping (NET and SERT). Cell suspension is centrifuged at 41,000 g for 10 minutes at 4° C. The resultant pellets are re-suspended in 15 volumes of Ice-cold buffer (20 mM HEPES, 145 mM NaCl, 5 mM KCl, pH7.3), homogenized using an Ultra Turrax homogeniser and centrifuged as before. The resultant membrane pellets are re-suspended in up to 15 volume of ice-cold buffer, incubated for 20 minutes at 37° C and centrifuged as before at 41,000 g. The final membrane pellets are re-suspended into 5-10 volumes of ice-cold buffer, dispensed into 0.5 ml aliquots and stored at −80° C. until use. Protein concentration for each preparation is determined using Bio-Rad Protein Assay Kit.
# (§3) The affinity of the compounds of the invention to the human DAT or NET or SERT transporters is assessed by using the [^3H]WIN-35,428 or [^3H]nisoxetine or [^3H]citalopram binding assays in recombinant human DAT, NET and SERT membranes with the SPA technology. The final assay volume is 50 μL in 384 well plates.
# (§4) Briefly, 0.5 μL of test compound in neat DMSO or 0.5 μL of DMSO for total binding (TB) or 0.5 μL of indatraline 1 mM (10 μM final concentration) for non specific binding (NSB) are added to the assay plate. 50 μL of the SPA mixture is added to each well, containing: 30 μg/mL or 10 μg/mL or 25 μg/mL DAT, NET, SERT membranes, respectively; 5 nM [^3H]WIN-35,428 or 5 nM [^3H]nisoxetine or 1 nM [^3H]citalopram, for DAT, NET, SERT assay, respectively; 2.5 mg/mL or 1 mg/mL or 4 mg/mL WGA-PVT SPA beads (PerkinElmer RPNQ0001, for DAT, NET, SERT assay, respectively. All components are added to Assay Buffer (20 mM HEPES pH 7.4, 145 mM NaCl, 5 mM KCl, 0.01% Pluronic F-127). 0.02% BSA was used for DAT binding only. Plates are sealed with Topseal A and centrifuged 1 min, 800 rpm. Plates are loaded into a 1450 Microbeta TriLux (Perkin-Elmer) plate reader and the radioactivity counted after at least 4 hrs or overnight incubation at room temperature. Curve fitting and IC50 estimations are performed using a four parameter model in XLfit (IDBS, Guilford, UK) for Microdoft Excel (Microsoft, Redmond, Wash.).
# [3] = molecular target: human dopamine transporter (DAT) (Homo sapiens (Human), UniProt Q01959); assay: Scintillation Proximity Assay (SPA) for human DAT binding ([3H]WIN-35,428); conditions: recombinant human DAT, CHO
# Chain of human dopamine transporter (DAT) (Q01959 whole entry): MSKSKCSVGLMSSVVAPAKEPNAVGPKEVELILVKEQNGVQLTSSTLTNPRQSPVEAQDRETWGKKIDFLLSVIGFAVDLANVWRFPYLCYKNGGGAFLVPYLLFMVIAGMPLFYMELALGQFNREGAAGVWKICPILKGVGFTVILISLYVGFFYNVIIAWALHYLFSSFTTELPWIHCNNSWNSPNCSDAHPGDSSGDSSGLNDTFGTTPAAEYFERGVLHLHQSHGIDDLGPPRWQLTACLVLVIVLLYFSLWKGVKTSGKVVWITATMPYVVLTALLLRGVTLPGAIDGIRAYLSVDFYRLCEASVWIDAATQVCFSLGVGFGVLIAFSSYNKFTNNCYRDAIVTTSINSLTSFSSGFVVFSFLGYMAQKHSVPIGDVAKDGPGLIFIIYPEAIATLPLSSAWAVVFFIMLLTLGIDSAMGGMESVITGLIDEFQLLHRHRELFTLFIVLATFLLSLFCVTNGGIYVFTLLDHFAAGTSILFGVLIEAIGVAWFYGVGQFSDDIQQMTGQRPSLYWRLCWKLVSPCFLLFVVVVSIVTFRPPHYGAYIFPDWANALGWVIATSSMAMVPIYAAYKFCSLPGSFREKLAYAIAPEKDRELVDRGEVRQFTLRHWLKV
# From the text: as §1, §2, §3, §4
# The potency of the compounds of the invention in blocking the DAT function is measured using an uptake assay in a recombinant CHO cell line expressing human DAT (hDAT-CHO). Potency is measured in terms of pIC50 by testing the compounds of invention for the inhibition of [^3H]-dopamine uptake in DAT-CHO cells using a SPA technology in 384 well format.
# Briefly, on the days of the experiment hDAT-CHO cells are detached using Versene and added (75,000 cells/mL) to the SPA Mixture, which contains the following components in Assay Buffer (20 mM HEPES, 145 mM NaCl, 5 mM KCl, 2 mM CaCl2, 1 mM MgCl2 and 1 g/L glucose, pH 7.3): 0.02% w/v of Pluronic F127, 2 mg/mL SPA Imaging beads (RPNQ0260, PerkinElmer), 10 μM pargyline and 80 nM of [^3H]-dopamine. […]
# [4] = molecular target: human serotonin transporter (SERT) (Homo sapiens (Human), UniProt P31645); assay: Scintillation Proximity Assay (SPA) for human SERT binding ([3H]citalopram); conditions: recombinant human SERT, CHO membranes
# Chain of human serotonin transporter (SERT) (P31645 whole entry): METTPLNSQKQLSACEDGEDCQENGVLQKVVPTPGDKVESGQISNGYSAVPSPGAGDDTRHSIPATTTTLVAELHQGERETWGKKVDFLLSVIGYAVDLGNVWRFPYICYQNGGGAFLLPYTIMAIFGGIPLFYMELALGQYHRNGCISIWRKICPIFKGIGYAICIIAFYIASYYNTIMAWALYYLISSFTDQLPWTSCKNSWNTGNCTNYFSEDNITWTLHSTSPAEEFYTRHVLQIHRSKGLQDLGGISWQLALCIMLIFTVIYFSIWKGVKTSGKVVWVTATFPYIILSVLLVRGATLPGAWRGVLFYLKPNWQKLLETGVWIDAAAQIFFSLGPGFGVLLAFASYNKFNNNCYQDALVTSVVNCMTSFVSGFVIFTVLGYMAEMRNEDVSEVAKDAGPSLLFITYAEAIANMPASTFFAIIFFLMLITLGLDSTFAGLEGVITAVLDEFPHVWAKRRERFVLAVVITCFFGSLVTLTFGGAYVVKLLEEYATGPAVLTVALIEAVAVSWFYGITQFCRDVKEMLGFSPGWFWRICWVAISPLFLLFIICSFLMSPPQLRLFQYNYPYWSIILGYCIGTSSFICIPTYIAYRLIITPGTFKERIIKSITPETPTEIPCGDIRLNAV
# From the text: as §1, §2, §3, §4
# Chain of human ERG potassium channel (hERG) (Q12809 whole entry): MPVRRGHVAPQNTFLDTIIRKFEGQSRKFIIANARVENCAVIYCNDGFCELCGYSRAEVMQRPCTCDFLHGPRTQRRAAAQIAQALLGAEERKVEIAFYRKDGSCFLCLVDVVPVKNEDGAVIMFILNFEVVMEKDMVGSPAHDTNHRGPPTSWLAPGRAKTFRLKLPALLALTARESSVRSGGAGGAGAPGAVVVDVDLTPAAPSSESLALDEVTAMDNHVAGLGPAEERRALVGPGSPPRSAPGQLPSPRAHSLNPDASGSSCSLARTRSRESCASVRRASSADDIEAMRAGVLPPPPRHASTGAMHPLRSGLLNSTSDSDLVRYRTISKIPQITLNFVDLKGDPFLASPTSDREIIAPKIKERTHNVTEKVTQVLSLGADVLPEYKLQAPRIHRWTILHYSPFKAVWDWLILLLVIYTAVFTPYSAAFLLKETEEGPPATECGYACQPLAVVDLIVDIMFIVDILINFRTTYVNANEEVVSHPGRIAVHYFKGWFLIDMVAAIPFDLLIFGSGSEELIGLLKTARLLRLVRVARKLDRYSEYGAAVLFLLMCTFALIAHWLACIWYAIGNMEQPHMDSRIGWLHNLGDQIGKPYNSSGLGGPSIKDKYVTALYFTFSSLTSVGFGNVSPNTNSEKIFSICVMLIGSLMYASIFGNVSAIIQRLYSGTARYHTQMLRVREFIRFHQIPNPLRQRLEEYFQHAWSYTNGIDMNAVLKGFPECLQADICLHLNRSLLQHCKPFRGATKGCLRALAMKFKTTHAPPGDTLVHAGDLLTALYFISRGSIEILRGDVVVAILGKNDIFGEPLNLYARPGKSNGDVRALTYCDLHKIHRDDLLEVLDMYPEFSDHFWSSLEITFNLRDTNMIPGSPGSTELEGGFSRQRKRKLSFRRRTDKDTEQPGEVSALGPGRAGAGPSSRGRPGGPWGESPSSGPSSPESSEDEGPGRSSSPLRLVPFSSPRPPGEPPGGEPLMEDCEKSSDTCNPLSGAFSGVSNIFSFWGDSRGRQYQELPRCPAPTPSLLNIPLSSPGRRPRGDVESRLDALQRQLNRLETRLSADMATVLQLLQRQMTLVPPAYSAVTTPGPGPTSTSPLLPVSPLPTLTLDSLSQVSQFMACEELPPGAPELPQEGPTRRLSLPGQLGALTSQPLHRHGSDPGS
structure (smiles),measurement,setting,value
"OC1(CN2CCCC2)CCN(c2nc(Oc3cccc(F)c3)cc(C(F)(F)F)n2)CC1 [Example 2, 1-[4-(3-fluorophenoxy)-6-(trifluoromethyl)pyrimidin-2-yl]-4-(pyrrolidin-1-ylmethyl)piperidin-4-ol]",pIC50 hERG,[1],6.7
same,pIC50 NET,[2],7.57
same,pIC50 DAT,[3],8.80
same,IC50,[4],17 µM
"OC1(CNC2CC2)CCN(c2nc(Oc3cccc(F)c3)cc(C(F)(F)F)n2)CC1 [Example 3, 4-[(cyclopropylamino)methyl]-1-[4-(3-fluorophenoxy)-6-(trifluoromethyl)pyrimidin-2-yl]piperidin-4-ol]",pIC50 hERG,[1],6.0
same,pIC50 NET,[2],6.42
same,pIC50 DAT,[3],8.13
same,IC50,[4],21.4 µM
"CN(CC1(O)CCN(c2nc(Oc3cccc(F)c3)cc(C(F)(F)F)n2)CC1)C1CC1 [Example 4, 4-{[cyclopropyl(methyl)amino]methyl}-1-[4-(3-fluorophenoxy)-6-(trifluoromethyl)pyrimidin-2-yl]piperidin-4-ol]",pIC50 hERG,[1],6.1
same,pIC50 NET,[2],6.19
same,pIC50 DAT,[3],7.38
same,IC50,[4],> 100 µM
"CNCC1(O)CCN(c2nc(Oc3cccc(F)c3)cc(C(F)(F)F)n2)CC1 [Example 5, 1-[4-(3-fluorophenoxy)-6-(trifluoromethyl)pyrimidin-2-yl]-4-[(methylamino)methyl]piperidin-4-ol]",pIC50 hERG,[1],5.7
same,pIC50 NET,[2],6.61
same,pIC50 DAT,[3],8.33
same,IC50,[4],23.4 µM
"OC1(CN2CCC(F)(F)C2)CCN(c2nc(Oc3cccc(F)c3)cc(C(F)(F)F)n2)CC1 [Example 6, 4-[(3,3-difluoropyrrolidin-1-yl)methyl]-1-[4-(3-fluorophenoxy)-6-(trifluoromethyl)pyrimidin-2-yl]piperidin-4-ol]",IC50,[1],> 10 µM
same,pIC50 NET,[2],5.94
same,pIC50 DAT,[3],6.89
same,IC50,[4],32.4 µM
"Cl.OC1(CN2CCCNCC2)CCN(c2nc(Oc3cccc(F)c3)cc(C(F)(F)F)n2)CC1 [Example 7, 4-(1,4-diazepan-1-ylmethyl)-1-[4-(3-fluorophenoxy)-6-(trifluoromethyl)pyrimidin-2-yl]piperidin-4-ol hydrochloride]",pIC50 hERG,[1],5.8
same,pIC50 NET,[2],6.53
same,pIC50 DAT,[3],8.06
same,IC50,[4],2.95 µM
"CC1CCC(C)N1CC1(O)CCN(c2nc(Oc3cccc(F)c3)cc(C(F)(F)F)n2)CC1 (centres unmarked) [Example 8, 4-[(2,5-dimethylpyrrolidin-1-yl)methyl]-1-[4-(3-fluorophenoxy)-6-(trifluoromethyl)pyrimidin-2-yl]piperidin-4-ol]",pIC50 hERG,[1],6.8
same,pIC50 NET,[2],6.29
same,pIC50 DAT,[3],7.66
same,IC50,[4],6.03 µM
"NCC1(O)CCN(c2nc(Oc3cccc(F)c3)cc(C(F)(F)F)n2)CC1 [Example 11, 4-(aminomethyl)-1-[4-(3-fluorophenoxy)-6-(trifluoromethyl)pyrimidin-2-yl]piperidin-4-ol]",pIC50 hERG,[1],5.8
same,pIC50 NET,[2],6.46
same,pIC50 DAT,[3],8.72
same,IC50,[4],7.59 µM
"NCC1(F)CCN(c2nc(Oc3cccc(F)c3)cc(C(F)(F)F)n2)CC1 [Example 13, {4-fluoro-1-[4-(3-fluorophenoxy)-6-(trifluoromethyl)pyrimidin-2-yl]piperidin-4-yl}methanamine]",pIC50 hERG,[1],5.4
same,pIC50 NET,[2],6.40
same,pIC50 DAT,[3],8.31
same,IC50,[4],7.24 µM
"NCC1(O)CCN(c2cc(Oc3cccc(F)c3)cc(F)c2F)CC1 [Example 18, 4-(aminomethyl)-1-[2,3-difluoro-5-(3-fluorophenoxy)phenyl]piperidin-4-ol]",pIC50 hERG,[1],6.0
same,pIC50 NET,[2],7.51
same,pIC50 DAT,[3],9.05
same,IC50,[4],6.17 µM
"NCC1(O)CCN(c2cc(F)c(F)c(Oc3cccc(F)c3)c2)CC1 [Example 19, 4-(aminomethyl)-1-[3,4-difluoro-5-(3-fluorophenoxy)phenyl]piperidin-4-ol]",pIC50 hERG,[1],6.1
same,pIC50 NET,[2],6.10
same,pIC50 DAT,[3],8.02
same,IC50,[4],0.363 µM
"CC(C)C(=O)NCC1(O)CCN(c2nc(Oc3cccc(F)c3)cc(C(F)(F)F)n2)CC1 [Example 21, N-({1-[4-(3-fluorophenoxy)-6-(trifluoromethyl)pyrimidin-2-yl]-4-hydroxypiperidin-4-yl}methyl)-2-methylpropanamide]",IC50,[1],> 10 µM
same,pIC50 NET,[2],4.75
same,pIC50 DAT,[3],7.84
same,IC50,[4],> 100 µM
"O=C(NCC1(O)CCN(c2nc(Oc3cccc(F)c3)cc(C(F)(F)F)n2)CC1)C1CNC1 [Example 25, N-({1-[4-(3-fluorophenoxy)-6-(trifluoromethyl)pyrimidin-2-yl]-4-hydroxypiperidin-4-yl}methyl)azetidine-3-carboxamide]",IC50,[1],> 10 µM
same,pIC50 NET,[2],5.70
same,pIC50 DAT,[3],8.30
same,IC50,[4],35.5 µM
"O=C(NCC1(O)CCN(c2nc(Oc3cccc(F)c3)cc(C(F)(F)F)n2)CC1)c1ccccc1 [Example 26, N-({1-[4-(3-fluorophenoxy)-6-(trifluoromethyl)pyrimidin-2-yl]-4-hydroxypiperidin-4-yl}methyl)benzamide]",pIC50 hERG,[1],5.5
same,IC50,[2],> 100 µM
same,pIC50 DAT,[3],7.65
same,IC50,[4],> 100 µM
